The test deals with T1, GST-HDAC6, human, recombinant (recombinant HDAC6 WT) (Homo sapiens, UniProt Q9UBN7).
T1 sequence (Q9UBN7 1-1215): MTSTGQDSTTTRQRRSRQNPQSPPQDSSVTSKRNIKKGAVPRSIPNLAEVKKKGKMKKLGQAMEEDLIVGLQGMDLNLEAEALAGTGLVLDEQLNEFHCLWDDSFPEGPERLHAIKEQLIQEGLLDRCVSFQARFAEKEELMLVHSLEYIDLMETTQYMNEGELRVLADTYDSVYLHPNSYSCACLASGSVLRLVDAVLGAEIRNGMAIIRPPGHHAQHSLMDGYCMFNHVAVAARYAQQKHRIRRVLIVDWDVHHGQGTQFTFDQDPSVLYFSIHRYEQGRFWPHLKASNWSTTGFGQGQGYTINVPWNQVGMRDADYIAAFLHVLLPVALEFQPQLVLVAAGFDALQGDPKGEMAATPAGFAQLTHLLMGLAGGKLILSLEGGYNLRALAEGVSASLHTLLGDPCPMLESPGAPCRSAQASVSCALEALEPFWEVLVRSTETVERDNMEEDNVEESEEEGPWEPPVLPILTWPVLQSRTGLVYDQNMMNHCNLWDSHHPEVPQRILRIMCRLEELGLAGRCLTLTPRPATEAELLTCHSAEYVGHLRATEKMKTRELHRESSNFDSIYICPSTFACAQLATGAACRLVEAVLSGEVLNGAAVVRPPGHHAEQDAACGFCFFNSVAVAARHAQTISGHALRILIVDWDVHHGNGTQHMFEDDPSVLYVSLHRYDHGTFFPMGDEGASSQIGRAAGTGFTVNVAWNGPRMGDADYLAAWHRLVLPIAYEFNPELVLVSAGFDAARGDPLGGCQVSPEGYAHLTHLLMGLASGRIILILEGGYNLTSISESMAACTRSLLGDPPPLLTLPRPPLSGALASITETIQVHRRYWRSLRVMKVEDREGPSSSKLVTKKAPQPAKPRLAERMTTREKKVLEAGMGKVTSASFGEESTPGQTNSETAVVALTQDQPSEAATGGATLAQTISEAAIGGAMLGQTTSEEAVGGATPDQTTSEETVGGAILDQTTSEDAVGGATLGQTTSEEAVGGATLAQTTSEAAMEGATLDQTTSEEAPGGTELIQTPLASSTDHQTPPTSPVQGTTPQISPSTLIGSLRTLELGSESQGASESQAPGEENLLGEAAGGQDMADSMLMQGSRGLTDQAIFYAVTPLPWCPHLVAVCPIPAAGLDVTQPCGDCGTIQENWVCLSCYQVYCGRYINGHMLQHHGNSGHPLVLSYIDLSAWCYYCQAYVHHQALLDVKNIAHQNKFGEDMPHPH
Nature of the test: ELISA PPI competition, HDAC6 binding to immobilised His6-ubiquitin.

As a reminder, the IC50 is the concentration needed to halve the response being measured. For `Cc1ccccc1OCCCn1cc(C=C2C(=N)N3N=CSC3=NC2=O)c2ccccc21` [compound 16], the IC50 turned out to be 78 µM.

Source of the values: paper doi:10.1101/203372v2 (biorxiv, 2017).
